Legend:
[1] = Solid-state stability of the hydrate at room temperature; type: physicochemical; conditions: not stable
Description: The novel hydrate of vortioxetine hydrobromide is not stable at room temperature and converts to form alpha of WO 2007/144005 A1 within about 4 weeks.

[2] = exposed to high relative humidity; example 4f of WO 2007/144005 A1; cited from earlier work
[3] = Solubility as a function of time in hexanol/n-heptane (1:39 v:v), UV-spectrophotometry; type: physicochemical; conditions: 25±1° C., UV at 227 nm, hydrobromide
Description: It is known to a person skilled in the art that the difference in the relative solubility of two polymorphs is independent from the solvent system, if an “ideal solution”, meaning a solution which is not too concentrated, is present. (see e.g. Kuhnert-Brandstätter M., Burger A., Pharmazeutische Industrie, 1972, 34, Nr. 3, 187-190; Samuel H. Yalowsky, Solubility and Solubilization in Aqueous Media, ACS, Oxford University Press 1999, ISBN: 0-8412-3576-7, p. 98). Therefore the solubilities of vortioxetine hydrobromide forms alpha and beta of WO 2007/144005 A1 and the compound of the present invention were determined in a mixture of hexanol and n-heptane. […] (see example 4 of the present invention).
The solubilities as a function of time were determined for vortioxetine hydrobromide polymorphs alpha, beta and the crystalline compound of the present invention, respectively. Therefore approximately 100 mg of each polymorph (polymorph alpha and beta were obtained according to the procedures disclosed in WO 2007/144005 A1, the crystalline compound of the present invention was obtained according to the procedure disclosed in example 1 herein) were stirred in 50 mL of a mixture of hexanol/n-heptane (1:39=v:v) at 25±1° C. Subsequently 5 mL were taken from each suspension after 1, 5, 10, 15, 30 and 60 minutes with the aid of a volumetric pipette and filtered. The concentrations of the obtained solutions were determined directly by UV-spectrophotometry (apparatus: Shimadzu UV1800) at 227 nm.
The determination of the extinction coefficient was performed with polymorph delta as a calibration substance.

[4] = Water solubility calculated from relative solubilities and WO 2007/144005 A1 water solubility data; conditions: calculation with water solubility value of polymorph alpha (2.0 mg/mL) from WO 2007/144005 A1, hydrobromide
Description: (§1) Using the water solubility values of polymorphs alpha and beta provided in WO 2007/144005 A1 and the herein determined relative solubilities of polymorphs alpha, beta and delta the water solubility of the crystalline compound of the present invention can be calculated.

[5] = Gravimetric moisture sorption/desorption cycle; type: physicochemical
Description: In addition, an active pharmaceutical ingredient is preferably non-hygroscopic in order to ensure the chemical and physical quality during the storage of the active substance itself. Furthermore, an active pharmaceutical ingredient is preferably non-hygroscopic in order to ensure the chemical and physical quality also during the shelf-life of a solid finished dosage form containing the active substance. Special and expensive packaging can then be avoided. […] For instance, in example 4f of WO 2007/144005 A1, it is mentioned that form gamma absorbs about 4.5% water when exposed to high relative humidity and in example 4h of the same application it is stated that the water content of the hemihydrate strongly depends on the relative humidity. For instance, the water content of the hemihydrate at 95% relative humidity is about 3.7% according to example 4h of WO 2007/144005.
Gravimetric moisture sorption/desorption curves were acquired using a SPS-11 moisture sorption analyzer (MD Messtechnik, Ulm, D). The measurement cycle was started at 43% relative humidity (RH) and decreased in 10% steps down to 0% RH; up to 95% RH, down to 0% RH and up to 43% RH. The equilibrium condition for each step was set to a mass constancy of ±0.01% over 30 min. The temperature was 25±0.1° C.

physchem = conditions: water
Description: as §1

Cc1ccc(Sc2ccccc2N2CCNCC2)c(C)c1
time to conversion to form alpha [1]: ≤ 4 weeks

Br.Cc1ccc(Sc2ccccc2N2CCNCC2)c(C)c1 [form gamma, 1-{2-[(2,4-dimethylphenyl)sulfanyl]phenyl}piperazine hydrobromide]
water absorbed [2]: about 4.5%

Br.Cc1ccc(Sc2ccccc2N2CCNCC2)c(C)c1 [polymorph alpha, 1-{2-[(2,4-dimethylphenyl)sulfanyl]phenyl}piperazine hydrobromide]
absolute solubility in hexanol/n-heptan (1:39 = v:v) ([3]; listed as alpha): 0.031 mg/mL

Br.Cc1ccc(Sc2ccccc2N2CCNCC2)c(C)c1 [polymorph beta, 1-{2-[(2,4-dimethylphenyl)sulfanyl]phenyl}piperazine hydrobromide, reference compound]
absolute solubility in hexanol/n-heptan (1:39 = v:v) ([3]; listed as beta): 0.015 mg/mL
calculated water solubility 1) [4]: 1.0 mg/mL

Br.Cc1ccc(Sc2ccccc2N2CCNCC2)c(C)c1 [polymorph delta, 1-{2-[(2,4-dimethylphenyl)sulfanyl]phenyl}piperazine hydrobromide]
hygroscopicity ([5]; according to the specifications of the European Pharmacopoeia): non-hygroscopic
water content ([5]; relative humidity of about 0%, 25° C.): about 0.3%
water content ([5]; relative humidity of about 80%, 25° C.): about 0.5%
water content ([5]; up to a relative humidity of about 95%): less than 0.7%
solubility (physchem): 3800 µg/mL
absolute solubility in hexanol/n-heptan (1:39 = v:v) ([3]; listed as present invention): 0.048 mg/mL
calculated water solubility 1) ([4]; listed as compound of the present invention): 3.0 mg/mL

Reference: US9499504B2, “Crystalline form of vortioxetine hydrobromide” (Sandoz AG, priority 2012, dated 2016)
